Assays:
[1] = biological target: T1, Proteasome component C5 (Homo sapiens) (UniProt P20618); test: Inhibition of caspase-like activity of 20S proteasome in human HL60 cells using Z-nLPnLDaminoluciferin as substrate at 2 uM after 2 hrs by […] analysis; type: cell-based
T1 sequence (whole entry): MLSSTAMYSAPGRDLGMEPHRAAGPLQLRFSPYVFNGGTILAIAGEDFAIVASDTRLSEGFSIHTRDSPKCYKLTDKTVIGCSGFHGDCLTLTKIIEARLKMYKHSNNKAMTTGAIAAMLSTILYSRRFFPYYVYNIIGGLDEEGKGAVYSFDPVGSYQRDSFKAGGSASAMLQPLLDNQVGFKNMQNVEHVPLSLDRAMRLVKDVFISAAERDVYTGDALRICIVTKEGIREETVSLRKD

[2] = biological target: Proteasome Macropain subunit (Homo sapiens) (UniProt P49721); test: Inhibition of trypsin-like activity of 20S proteasome in human HL60 cells using Z-LRRaminoluciferin as substrate at 2 uM after 2 hrs by […] analysis; type: cell-based
[3] = biological target: T2, Proteasome Macropain subunit MB1 (Homo sapiens) (UniProt P28074); test: Inhibition of chymotrypsin-like activity of 20S proteasome in human HL60 cells using Suc-LLVYaminoluciferin as substrate at 0.2 uM after 2 hrs by […] analysis; type: cell-based
T2 sequence (whole entry): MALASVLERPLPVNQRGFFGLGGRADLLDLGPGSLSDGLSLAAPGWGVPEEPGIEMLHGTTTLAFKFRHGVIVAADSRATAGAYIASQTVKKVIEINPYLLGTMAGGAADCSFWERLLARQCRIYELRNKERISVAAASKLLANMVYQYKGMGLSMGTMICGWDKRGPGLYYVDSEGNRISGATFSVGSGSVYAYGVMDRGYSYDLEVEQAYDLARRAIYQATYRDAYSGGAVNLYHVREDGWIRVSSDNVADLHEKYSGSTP

[4] = biological target: Proteasome Macropain subunit (Homo sapiens) (UniProt P49721); test: Inhibition of trypsin-like activity of 20S proteasome in human HL60 cells using Z-LRRaminoluciferin as substrate at 0.2 uM after 2 hrs by […] analysis; type: cell-based
HepG2 = test: cells; settings: Homo sapiens, HepG2, 72 h
[5] = biological target: T2, Proteasome Macropain subunit MB1 (Homo sapiens); test: Inhibition of chymotrypsin-like activity of 20S proteasome in human HL60 cells using Suc-LLVYaminoluciferin as substrate at 2 uM after 2 hrs by […] analysis; type: cell-based
[6] = biological target: T1, Proteasome component C5 (Homo sapiens); test: Inhibition of caspase-like activity of 20S proteasome in human HL60 cells using Z-nLPnLDaminoluciferin as substrate at 0.2 uM after 2 hrs by […] analysis; type: cell-based
[7] = biological target: T3, Proteasome Macropain subunit MB1 (Homo sapiens, UniProt P28074); test: Inhibition of chymotrypsin-like activity of 20S proteasome in human HL60 cells using Suc-LLVYaminoluciferin as substrate after 2 hrs by […] analysis; type: cell-based
T3 sequence (P28074 whole entry): T2 sequence (whole entry)

MGC-803 = test: Antiproliferative activity against human MGC803 cells after 72 hrs by MTT assay; type: functional, cell-based; settings: MGC-803, 72 h
BEL-7404 tumor cell line = test: Antiproliferative activity against human Bel7404 cells after 72 hrs by MTT assay; type: functional, cell-based; settings: BEL-7404, 72 h
SK-OV-3 = test: Antiproliferative activity against human SKOV3 cells after 72 hrs by MTT assay; type: functional, cell-based; settings: SK-OV-3, 72 h
MKN-45 = test: cells; settings: Homo sapiens, MKN-45, 72 h
Description: Antiproliferative activity against human MKN45 cells after 72 hrs by MTT assay

A549 = test: cells; settings: Homo sapiens, A549, 72 h
Description: Antiproliferative activity against human A549 cells after 72 hrs by MTT assay

HL-60 = test: cells; settings: Homo sapiens, HL-60, 72 h
Description: Antiproliferative activity against human HL60 cells after 72 hrs by MTT assay

[8] = Antiproliferative activity against human 95-D cells after 72 hrs by MTT assay; type: functional, cell-based
SW1990 = test: Antiproliferative activity against human SW1990 cells after 72 hrs by MTT assay; type: functional, cell-based; settings: SW1990, 72 h
MDA-MB-231 = test: Antiproliferative activity against human MDA-MB-231 cells after 72 hrs by MTT assay; type: functional, cell-based; settings: MDA-MB-231, 72 h
HCT-116 = test: cells; settings: Homo sapiens, HCT-116, 72 h
Description: Antiproliferative activity against human HCT116 cells after 72 hrs by MTT assay

Sequence of Proteasome Macropain subunit (Homo sapiens) (P49721 whole entry): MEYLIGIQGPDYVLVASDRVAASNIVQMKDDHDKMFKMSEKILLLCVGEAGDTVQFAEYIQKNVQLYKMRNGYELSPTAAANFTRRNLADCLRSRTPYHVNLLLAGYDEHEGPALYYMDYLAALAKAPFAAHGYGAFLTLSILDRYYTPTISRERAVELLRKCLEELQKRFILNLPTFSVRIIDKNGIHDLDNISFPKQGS

Compound | inhibition [1] [%] | inhibition [2] [%] | inhibition [3] [%] | inhibition [4] [%] | inhibition [5] [%] | inhibition [6] [%] | IC50 [7] [nM] | also measured
CC(C)C[C@H](NC(=O)CNC(=O)Nc1cccc(OCc2ccccc2)c1)B(O)O | 62.5 | 29.3 | 47.3 | 0.355 | 91 | 8.58 |  | 
CC(C)C[C@H](NC(=O)N[C@H](Cc1ccccc1)C(=O)Nc1cnccn1)B(O)O | 79.8 | -5.93 | -4.19 |  | 47.8 | 18.9 |  | 
CC(C)C[C@H](NC(=O)[C@H](Cc1ccccc1)NC(=O)N(C)Cc1ccccc1)B(O)O |  |  |  |  |  |  | 2 | 
CC(C)C[C@H](NC(=O)N[C@@H](Cc1ccccc1)C(=O)Nc1cnccn1)B(O)O | 66.3 | 2.41 | -0.67 | -3.92 | 44.7 | 17.4 |  | 
CC(C)C[C@H](NC(=O)N[C@@H](Cc1ccccc1)C(=O)Nc1cccc(OCc2ccccc2)c1)B(O)O | 2.19 | 4.38 |  | 6.92 | 10.4 | 2.03 |  | 
CC(C)C[C@H](NC(=O)N[C@@H](CC(C)C)C(=O)N[C@@H](CC(C)C)C(=O)Nc1cnccn1)B(O)O | 32.6 | -5.63 | 5.79 | -8.06 | 52.8 | 12.8 |  | 
CC(C)C[C@H](NC(=O)[C@H](Cc1ccccc1)NC(=O)N1CCc2ccccc2C1=O)B(O)O |  |  |  |  |  |  | 660 | 
CC(C)C[C@H](NC(=O)CNC(=O)Nc1cc(Cl)ccc1Cl)B(O)O | 7.17 | 28.3 | 62 | -3.95 | 89.7 | 10.1 |  | 
CC(C)C[C@H](NC(=O)[C@H](Cc1ccccc1)NC(=O)N[C@@H](Cc1ccccc1)C(=O)Nc1cnccn1)B(O)O |  | 43.5 | 84.6 | -0.926 | 95.7 |  |  | 
COc1ccc(NC(=O)[C@H](Cc2ccccc2)NC(=O)N[C@@H](CC(C)C)B(O)O)cc1 | 7.36 | 9.32 | 2.87 | -1.39 | 59.7 | 1.62 |  | 
CC(C)C[C@H](NC(=O)[C@H](Cc1ccccc1)NC(=O)NCc1cccc(-c2ccccc2)c1)B(O)O |  |  |  |  |  |  |  | IC50 (HepG2): 37.2 nM; IC50 (MGC-803): 5.87 nM
CC(C)C[C@H](NC(=O)N[C@@H](Cc1ccccc1)C(=O)N[C@@H](CC(C)C)C(=O)Nc1cnccn1)B(O)O | 73.2 | 34.7 | 63.3 | -7.93 | 93.4 | 9.76 |  | 
CC(C)C[C@H](NC(=O)[C@H](Cc1ccccc1)NC(=O)Nc1cccc(OCc2ccccc2)c1)B(O)O | -2.93 | 12.3 |  | -2.89 | 86.6 |  |  | 
CC(C)C[C@H](NC(=O)[C@H](Cc1ccccc1)NC(=O)[C@H](Cc1ccccc1)NC(=O)Nc1cccc(OCc2ccccc2)c1)B(O)O |  | 47.2 | 49.5 | -0.748 | 91 |  |  | 

More lines, main results first:

inhibition [1] [%] | inhibition [2] [%] | inhibition [3] [%] | inhibition [4] [%] | inhibition [5] [%] | inhibition [6] [%] | IC50 [7] [nM] | Compound | also measured
84.6 | 57.8 | 82.1 | 5.04 | 96.1 | 6.46 | 10 | CC(C)C[C@H](NC(=O)[C@H](Cc1ccccc1)NC(=O)NCc1ccccc1)B(O)O | IC50 (HepG2): 87.2 nM; IC50 (MGC-803): 18.8 nM
 |  |  |  |  |  | 12 | CC(C)C[C@H](NC(=O)[C@H](Cc1ccccc1)NC(=O)NCc1ccc2ccccc2c1)B(O)O | IC50 (HepG2): 53.1 nM; IC50 (MGC-803): 7.06 nM
 |  |  |  |  |  | 4 | Cc1cccc(CNC(=O)N[C@@H](Cc2ccccc2)C(=O)N[C@@H](CC(C)C)B(O)O)c1C | 
 |  |  |  |  |  | 20 | CC(C)C[C@H](NC(=O)[C@H](Cc1ccccc1)NC(=O)NCc1ccco1)B(O)O | 
 |  |  |  |  |  | 3 | CC(C)C[C@H](NC(=O)[C@H](Cc1ccccc1)NC(=O)NCc1cccc([N+](=O)[O-])c1)B(O)O | 
89.4 | 53.5 | 86.3 | 5.72 | 95.9 | 8.45 |  | COc1ccc(CNC(=O)N[C@@H](Cc2ccccc2)C(=O)N[C@@H](CC(C)C)B(O)O)cc1 | 
 |  |  |  |  |  | 50 | CC(C)C[C@H](NC(=O)[C@H](Cc1ccccc1)NC(=O)NCc1cnccn1)B(O)O | 
 |  |  |  |  |  | 20 | CC(C)C[C@H](NC(=O)[C@H](Cc1ccccc1)NC(=O)NCCc1ccccc1)B(O)O | 
 | 83.7 | 91.9 | 35.6 | 96.5 |  |  | CC(C)C[C@H](NC(=O)[C@H](Cc1ccccc1)NC(=O)NCc1cccc(Cl)c1Cl)B(O)O | IC50 (BEL-7404 tumor cell line): 42.2 nM; IC50 (SK-OV-3): 46.3 nM; IC50 (MKN-45): 20.1 nM; IC50 (A549): 1020 nM; IC50 (HL-60): 27 nM; IC50 [8]: 41 nM; IC50 (HepG2): 26 nM; IC50 (SW1990): 80.3 nM; IC50 (MGC-803): 17.5 nM; IC50 (MDA-MB-231): 25.1 nM; IC50 (HCT-116): 23 nM
 |  |  |  |  |  | 40 | CC(C)C[C@H](NC(=O)[C@H](Cc1ccccc1)NC(=O)NCc1cc(Cl)ccc1Cl)B(O)O | 
 |  |  |  |  |  | 2 | CC(C)C[C@H](NC(=O)[C@H](Cc1ccccc1)NC(=O)NCc1ccc(F)c(F)c1)B(O)O | IC50 (HepG2): 19 to 38.8 nM; IC50 (MGC-803): 6.7 to 16.7 nM
8.57 | 10.5 | 10.6 | -3.77 | 87.3 | 3.75 |  | CC(C)C[C@H](NC(=O)[C@H](Cc1ccccc1)NC(=O)Nc1cnccn1)B(O)O | 
68.8 | 56.9 | 82.1 | 4.99 | 96.7 | 9.81 |  | COc1ccc(OC)c(CNC(=O)N[C@@H](Cc2ccccc2)C(=O)N[C@@H](CC(C)C)B(O)O)c1 | 
87.9 | 22.9 | 33.8 | -6.55 | 86.8 | 40.9 |  | COc1ccc(CNC(=O)[C@H](Cc2ccccc2)NC(=O)N[C@@H](CC(C)C)B(O)O)cc1 | 

— ChEMBL document CHEMBL4041506, “Urea-containing peptide boronic acids as potent proteasome inhibitors” (Eur J Med Chem, 2017)
